Laboratory results from US20040266623A1, “SYNERGISTIC QUINCLORAC HERBICIDAL COMPOSITIONS” (priority 2003, published 2004).

Key:
Test in all cases: Greenhouse pot test, postemergent spray, visual control rating converted to percent control
Format in all cases: in vivo
crabgrass = settings: for Control (1-9) Crabgrass: scale 1=no control, 9=death of plant
Method in brief: (§1)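 Plants were rated visually at 24 HAT through 21 DAT on a 1 (none) to 9 (death) scale, later expressed as percent control. Treatment was a postemergent greenhouse pot spray delivering 43.46 gallons/acre onto plants in soilless media. Two- and three-way mixtures were judged for synergy against Colby-expected values.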

dandelion = settings: for Control (1-9) Dandelion: scale 1=no control, 9=death of plant
Method in brief: as §1

plantain = settings: for Control (1-9) Plantain: scale 1=no control, 9=death of plant
Method in brief: as §1

white clover = settings: for Control (1-9) Clover: scale 1=no control, 9=death of plant
Method in brief: as §1

Cc1nn(-c2cc(NS(C)(=O)=O)c(Cl)cc2Cl)c(=O)n1C(F)F [Sulfentrazone @ 0.02 lbs/A]
% Control Crabgrass (crabgrass; Test 3, 7 DAT): 44.4%
Control (1-9) Crabgrass (crabgrass; Test 3, 7 DAT): 4
% Control Crabgrass (crabgrass; Test 3, 14 DAT): 44.4%
Control (1-9) Crabgrass (crabgrass; Test 3, 14 DAT): 4
% Control Crabgrass (crabgrass; Test 3, 21 DAT): 33.3%
Control (1-9) Crabgrass (crabgrass; Test 3, 21 DAT): 3
% Control Crabgrass (crabgrass; Test 3, 24 HAT): 11.1%
Control (1-9) Crabgrass (crabgrass; Test 3, 24 HAT): 1
% Control Crabgrass (crabgrass; Test 3, 72 HAT): 22.2%
Control (1-9) Crabgrass (crabgrass; Test 3, 72 HAT): 2
% Control Dandelion (dandelion; Test 3, 7 DAT): 44.4%
Control (1-9) Dandelion (dandelion; Test 3, 7 DAT): 4
% Control Dandelion (dandelion; Test 3, 14 DAT): 77.8%
Control (1-9) Dandelion (dandelion; Test 3, 14 DAT): 7
% Control Dandelion (dandelion; Test 3, 21 DAT): 66.7%
Control (1-9) Dandelion (dandelion; Test 3, 21 DAT): 6
% Control Dandelion (dandelion; Test 3, 24 HAT): 33.3%
Control (1-9) Dandelion (dandelion; Test 3, 24 HAT): 3
% Control Dandelion (dandelion; Test 3, 72 HAT): 33.3%
Control (1-9) Dandelion (dandelion; Test 3, 72 HAT): 3
% Control Plantain (plantain; Test 3, 7 DAT): 100.0%
Control (1-9) Plantain (plantain; Test 3, 7 DAT): 9
% Control Plantain (plantain; Test 3, 14 DAT): 100.0%
Control (1-9) Plantain (plantain; Test 3, 14 DAT): 9
% Control Plantain (plantain; Test 3, 21 DAT): 100.0%
Control (1-9) Plantain (plantain; Test 3, 21 DAT): 9
% Control Plantain (plantain; Test 3, 24 HAT): 44.4%
Control (1-9) Plantain (plantain; Test 3, 24 HAT): 4
% Control Plantain (plantain; Test 3, 72 HAT): 88.9%
Control (1-9) Plantain (plantain; Test 3, 72 HAT): 8
% Control Clover (white clover; Test 3, 7 DAT): 33.3%
Control (1-9) Clover (white clover; Test 3, 7 DAT): 3
% Control Clover (white clover; Test 3, 14 DAT): 44.4%
Control (1-9) Clover (white clover; Test 3, 14 DAT): 4
% Control Clover (white clover; Test 3, 21 DAT): 44.4%
Control (1-9) Clover (white clover; Test 3, 21 DAT): 4
% Control Clover (white clover; Test 3, 24 HAT): 33.3%
Control (1-9) Clover (white clover; Test 3, 24 HAT): 3
% Control Clover (white clover; Test 3, 72 HAT): 22.2%
Control (1-9) Clover (white clover; Test 3, 72 HAT): 2

Cc1cc(Cl)ccc1OCC(=O)OCCCCCC(C)C [MCPA IOE @ 1.10 lbs/A]
% Control Crabgrass (crabgrass; Test 3, 7 DAT): 11.1%
Control (1-9) Crabgrass (crabgrass; Test 3, 7 DAT): 1
% Control Crabgrass (crabgrass; Test 3, 14 DAT): 22.2%
Control (1-9) Crabgrass (crabgrass; Test 3, 14 DAT): 2
% Control Crabgrass (crabgrass; Test 3, 21 DAT): 44.4%
Control (1-9) Crabgrass (crabgrass; Test 3, 21 DAT): 4
% Control Crabgrass (crabgrass; Test 3, 24 HAT): 11.1%
Control (1-9) Crabgrass (crabgrass; Test 3, 24 HAT): 1
% Control Crabgrass (crabgrass; Test 3, 72 HAT): 11.1%
Control (1-9) Crabgrass (crabgrass; Test 3, 72 HAT): 1
% Control Crabgrass (crabgrass; Test 4, 24 HAT): 11.1%
Control (1-9) Crabgrass (crabgrass; Test 4, 24 HAT): 1
% Control Crabgrass (crabgrass; Test 4, 72 HAT): 11.1%
Control (1-9) Crabgrass (crabgrass; Test 4, 72 HAT): 1
% Control Dandelion (dandelion; Test 3, 7 DAT): 66.7%
Control (1-9) Dandelion (dandelion; Test 3, 7 DAT): 6
% Control Dandelion (dandelion; Test 3, 14 DAT): 77.8%
Control (1-9) Dandelion (dandelion; Test 3, 14 DAT): 7
% Control Dandelion (dandelion; Test 3, 21 DAT): 88.9%
Control (1-9) Dandelion (dandelion; Test 3, 21 DAT): 8
% Control Dandelion (dandelion; Test 3, 24 HAT): 33.3%
Control (1-9) Dandelion (dandelion; Test 3, 24 HAT): 3
% Control Dandelion (dandelion; Test 3, 72 HAT): 55.6%
Control (1-9) Dandelion (dandelion; Test 3, 72 HAT): 5
% Control Dandelion (dandelion; Test 4, 24 HAT): 33.3%
Control (1-9) Dandelion (dandelion; Test 4, 24 HAT): 3
% Control Dandelion (dandelion; Test 4, 72 HAT): 55.6%
Control (1-9) Dandelion (dandelion; Test 4, 72 HAT): 5
% Control Plantain (plantain; Test 3, 7 DAT): 66.7%
Control (1-9) Plantain (plantain; Test 3, 7 DAT): 6
% Control Plantain (plantain; Test 3, 14 DAT): 77.8%
Control (1-9) Plantain (plantain; Test 3, 14 DAT): 7
% Control Plantain (plantain; Test 3, 21 DAT): 77.8%
Control (1-9) Plantain (plantain; Test 3, 21 DAT): 7
% Control Plantain (plantain; Test 3, 24 HAT): 44.4%
Control (1-9) Plantain (plantain; Test 3, 24 HAT): 4
% Control Plantain (plantain; Test 3, 72 HAT): 44.4%
Control (1-9) Plantain (plantain; Test 3, 72 HAT): 4
% Control Plantain (plantain; Test 4, 24 HAT): 22.2%
Control (1-9) Plantain (plantain; Test 4, 24 HAT): 2
% Control Plantain (plantain; Test 4, 72 HAT): 44.4%
Control (1-9) Plantain (plantain; Test 4, 72 HAT): 4
% Control Clover (white clover; Test 3, 7 DAT): 66.7%
Control (1-9) Clover (white clover; Test 3, 7 DAT): 6
% Control Clover (white clover; Test 3, 14 DAT): 88.9%
Control (1-9) Clover (white clover; Test 3, 14 DAT): 8
% Control Clover (white clover; Test 3, 21 DAT): 100.0%
Control (1-9) Clover (white clover; Test 3, 21 DAT): 9
% Control Clover (white clover; Test 3, 24 HAT): 44.4%
Control (1-9) Clover (white clover; Test 3, 24 HAT): 4
% Control Clover (white clover; Test 3, 72 HAT): 44.4%
Control (1-9) Clover (white clover; Test 3, 72 HAT): 4
% Control Clover (white clover; Test 4, 24 HAT): 44.4%
Control (1-9) Clover (white clover; Test 4, 24 HAT): 4
% Control Clover (white clover; Test 4, 72 HAT): 55.6%
Control (1-9) Clover (white clover; Test 4, 72 HAT): 5

Cc1nn(-c2cc(CC(Cl)C(=O)O)c(Cl)cc2F)c(=O)n1C(F)F (stereo not drawn) [Carfentrazone @ 0.02 lbs/A]
% Control Crabgrass (crabgrass; Test 4, 24 HAT): 11.1%
Control (1-9) Crabgrass (crabgrass; Test 4, 24 HAT): 1
% Control Crabgrass (crabgrass; Test 4, 72 HAT): 44.4%
Control (1-9) Crabgrass (crabgrass; Test 4, 72 HAT): 4
% Control Dandelion (dandelion; Test 4, 24 HAT): 33.3%
Control (1-9) Dandelion (dandelion; Test 4, 24 HAT): 3
% Control Dandelion (dandelion; Test 4, 72 HAT): 55.6%
Control (1-9) Dandelion (dandelion; Test 4, 72 HAT): 5
% Control Plantain (plantain; Test 4, 24 HAT): 33.3%
Control (1-9) Plantain (plantain; Test 4, 24 HAT): 3
% Control Plantain (plantain; Test 4, 72 HAT): 66.7%
Control (1-9) Plantain (plantain; Test 4, 72 HAT): 6
% Control Clover (white clover; Test 4, 24 HAT): 44.4%
Control (1-9) Clover (white clover; Test 4, 24 HAT): 4
% Control Clover (white clover; Test 4, 72 HAT): 44.4%
Control (1-9) Clover (white clover; Test 4, 72 HAT): 4

O=C(O)c1c(Cl)ccc2cc(Cl)cnc12 [Quinclorac @ 0.18 lbs/A]
% Control Crabgrass (crabgrass; Test 3, 7 DAT): 22.2%
Control (1-9) Crabgrass (crabgrass; Test 3, 7 DAT): 2
% Control Crabgrass (crabgrass; Test 3, 14 DAT): 33.3%
Control (1-9) Crabgrass (crabgrass; Test 3, 14 DAT): 3
% Control Crabgrass (crabgrass; Test 3, 21 DAT): 33.3%
Control (1-9) Crabgrass (crabgrass; Test 3, 21 DAT): 3
% Control Crabgrass (crabgrass; Test 3, 24 HAT): 11.1%
Control (1-9) Crabgrass (crabgrass; Test 3, 24 HAT): 1
% Control Crabgrass (crabgrass; Test 3, 72 HAT): 11.1%
Control (1-9) Crabgrass (crabgrass; Test 3, 72 HAT): 1
% Control Crabgrass (crabgrass; Test 4, 24 HAT): 11.1%
Control (1-9) Crabgrass (crabgrass; Test 4, 24 HAT): 1
% Control Crabgrass (crabgrass; Test 4, 72 HAT): 11.1%
Control (1-9) Crabgrass (crabgrass; Test 4, 72 HAT): 1
% Control Dandelion (dandelion; Test 3, 7 DAT): 22.2%
Control (1-9) Dandelion (dandelion; Test 3, 7 DAT): 2
% Control Dandelion (dandelion; Test 3, 14 DAT): 33.3%
Control (1-9) Dandelion (dandelion; Test 3, 14 DAT): 3
% Control Dandelion (dandelion; Test 3, 21 DAT): 33.3%
Control (1-9) Dandelion (dandelion; Test 3, 21 DAT): 3
% Control Dandelion (dandelion; Test 3, 24 HAT): 11.1%
Control (1-9) Dandelion (dandelion; Test 3, 24 HAT): 1
% Control Dandelion (dandelion; Test 3, 72 HAT): 22.2%
Control (1-9) Dandelion (dandelion; Test 3, 72 HAT): 2
% Control Dandelion (dandelion; Test 4, 24 HAT): 11.1%
Control (1-9) Dandelion (dandelion; Test 4, 24 HAT): 1
% Control Dandelion (dandelion; Test 4, 72 HAT): 22.2%
Control (1-9) Dandelion (dandelion; Test 4, 72 HAT): 2
% Control Plantain (plantain; Test 3, 7 DAT): 22.2%
Control (1-9) Plantain (plantain; Test 3, 7 DAT): 2
% Control Plantain (plantain; Test 3, 14 DAT): 33.3%
Control (1-9) Plantain (plantain; Test 3, 14 DAT): 3
% Control Plantain (plantain; Test 3, 21 DAT): 33.3%
Control (1-9) Plantain (plantain; Test 3, 21 DAT): 3
% Control Plantain (plantain; Test 3, 24 HAT): 11.1%
Control (1-9) Plantain (plantain; Test 3, 24 HAT): 1
% Control Plantain (plantain; Test 3, 72 HAT): 22.2%
Control (1-9) Plantain (plantain; Test 3, 72 HAT): 2
% Control Plantain (plantain; Test 4, 24 HAT): 11.1%
Control (1-9) Plantain (plantain; Test 4, 24 HAT): 1
% Control Plantain (plantain; Test 4, 72 HAT): 22.2%
Control (1-9) Plantain (plantain; Test 4, 72 HAT): 2
% Control Clover (white clover; Test 3, 7 DAT): 44.4%
Control (1-9) Clover (white clover; Test 3, 7 DAT): 4
% Control Clover (white clover; Test 3, 14 DAT): 44.4%
Control (1-9) Clover (white clover; Test 3, 14 DAT): 4
% Control Clover (white clover; Test 3, 21 DAT): 66.7%
Control (1-9) Clover (white clover; Test 3, 21 DAT): 6
% Control Clover (white clover; Test 3, 24 HAT): 11.1%
Control (1-9) Clover (white clover; Test 3, 24 HAT): 1
% Control Clover (white clover; Test 3, 72 HAT): 22.2%
Control (1-9) Clover (white clover; Test 3, 72 HAT): 2
% Control Clover (white clover; Test 4, 24 HAT): 11.1%
Control (1-9) Clover (white clover; Test 4, 24 HAT): 1
% Control Clover (white clover; Test 4, 72 HAT): 22.2%
Control (1-9) Clover (white clover; Test 4, 72 HAT): 2
